Test results as given in patent publication US20110207689A1, “THE TREATMENT OF HEARING LOSS” (Auckland UniServices Limited, priority 2008, published 2011).
Counter-ions that a name gives are not always drawn.

Assays:
[1] = tested on: inner hair cell receptor potential; assay: Summating potential (SP) thresholds during cochlear perfusion, ambient noise levels; type: in vivo, Wistar rats; details: for effect on SP thresholds: RWM perfusion 90 minutes, adenosine 10 mM, CCPA 1 mM, rats at ambient noise
Experimental: SP thresholds, representing the inner hair cell receptor potential, were measured at frequencies ranging from 4-26 kHz prior to perfusion of artificial perilymph (AP; baseline), after AP perfusion and after perfusion with adenosine receptor agonists adenosine and CCPA. Data presented as mean±SEM (n=8). *p<0.05 **p<0.01, one way ANOVA with Tukey's multiple comparison test. AP, artificial perilymph (control); adenosine (10 mM), non-selective adenosine receptor agonist; CCPA (1 mM), selective A1 adenosine receptor agonist; CGS-21680 (0.2 mM), selective A2A receptor agonist; SCH-58261, selective A2A receptor antagonist.
(§1) As a foundation for the noise studies and to determine the general effect of selective adenosine receptor agonists on the cochlea, auditory function was first evaluated in control animals using the summating potential (SP; measure of the inner hair cell receptor potential) and the compound action potential (CAP; measure of the neural afferent output). This was undertaken to determine the background influence of adenosine receptor activation in the normal cochlea as a platform for the studies in noise-exposed animals.
Animals were anaesthetized (sodium pentobarbital; 60 mg/kg i.p.) and placed on a thermostatically regulated blanket connected to a remote homeothermal control unit (Harvard Apparatus, Holliston, Mass., USA) to maintain stable body temperature (37.5° C.) via a rectal thermocouple probe (Harvard Apparatus). The head of the animal was placed on a heated (38° C. surface temperature) stereotaxic head-holder, connected to a heat block temperature controller (Bio-Medical Engineering Services, University of Auckland, New Zealand). The animals were artificially ventilated and the auditory bulla was exposed using a ventrolateral approach. The perfusion line was inserted close to the round window membrane (RWM). The RWM was perfused with test solutions containing A1, or A2A adenosine receptor agonists at […] using a Harvard Apparatus Series PHD 22/2000 syringe pump. Adenosine receptor agonists adenosine (10 mM), CCPA (1 mM), CGS-21680 (200 μM), alone or in combination with adenosine receptor antagonist SCH-58261 (200 μM), were perfused for 90 minutes. Sound-evoked cochlear responses (CAP and SP) to pure tone stimuli (4-28 kHz) were recorded from a silver wire electrode placed onto the cochlear round window. These responses were measured using a Tucker-Davis System II for the presentation of tone stimuli and acquisition of the electrical potentials via a Grass P16 Pre-amplifier.

[2] = tested on: rats exposed to broad band noise for 24 hours at 110 dBSPL; assay: ABR after broad band noise, adenosine receptor agonists delivered onto the round window membrane (Experiment 3); type: in vivo, Wistar rats; details: for post-treatment ABR thresholds for clicks and pure tones: 48 hours after administration to the RWM, CGS-21680 200 μM; for post-treatment ABR thresholds for clicks and pure tones / ABR threshold recovery for clicks: adenosine 10 mM; for post-treatment ABR thresholds for clicks and pure tones / ABR threshold recovery for pure tones (up to) / ABR threshold recovery for clicks: CCPA 1 mM; for ABR threshold recovery for pure tones (up to) / ABR threshold recovery for clicks: single dose onto RWM 6 hours after noise, ABR 48 hours after treatment; for ABR threshold recovery for pure tones (up to): adenosine 10 mM (16 kHz)
Experimental: ABRs were measured in response to auditory clicks (a) and pure tones (b-e) before noise exposure (baseline), 30 minutes after noise exposure (pre-treatment) and 48 hours after administration of adenosine receptor agonists (post-treatment). All drugs were delivered onto the cochlear round window membrane (f) Threshold recovery is defined as ABR post-treatment minus ABR pre-treatment. Data are expressed as means±SEM (n=8). *p<0.05; **p<0.01; ***p<0.001; one way ANOVA with Tukey's multiple comparison test. AP, artificial perilymph (control); adenosine (10 mM), non-selective adenosine receptor agonist; CCPA (1 mM), selective A1 adenosine receptor agonist; CGS-21680 (0.2 mM), selective A2A receptor agonist.
Rats were exposed to a broadband noise presented for 24 hours at 90, 100, or 110 dBSPL. Noise exposures were carried out in a custom-built acoustic chamber (Shelburg Acoustics, Sydney, Australia) with internal speakers and external controls (sound generator and frequency selector). The sound levels in the cage were measured using a calibrated Rion NL-49 sound level meter to ensure minimal deviations of sound intensity. The animals had free access to food and water during the exposure.
Auditory thresholds in noise-exposed animals were measured using auditory brainstem responses (ABR), which represent the sound evoked potentials from the auditory nerve and brainstem auditory nuclei. ABR measurements were recorded at least 24 hours prior to noise exposure (baseline) and then 30 min after noise exposure (pre-treatment). Adenosine receptor agonists or vehicle control were then delivered to the cochlear round window (around 6 hours post-noise) and ABR measurement was then repeated 48 hours after drug administration (post-treatment). ABR measurements were performed in a sound attenuator chamber (Shelburg Acoustics, Sydney, Australia). The rats were anesthetized with ketamine (75 mg/kg) and xylazine (10 mg/kg) and their body temperature was maintained at 38° C. with a heating pad as described. ABRs were obtained by placing fine platinum electrodes subdermally at the mastoid region of the ear of interest (active electrode), scalp vertex (reference) and mastoid region of the opposite ear (ground electrode). A series of auditory clicks or pure tones (4-28 kHz) presented at varying intensity and thresholds generated electrical activity reflecting differing levels of auditory processing. The sound threshold of the ABR complex (waves I-IV) were determined by progressively attenuating the sound intensity until the waveform was no longer observed. The acoustic stimuli for ABR were produced, and the responses, recorded, using a Tucker-Davis Technologies auditory physiology workstation (Alachua, Fla., USA) controlled by computer-based digital signal processing package and software (BioSig, Alachua, Fla., USA). ABR potentials were evoked with digitally produced 5 ms tone pips (0.5 ms rise-fall time) at frequencies between 4 and 28 kHz in half-octave steps. Sound pressure level (SPL) was raised in 5 dB steps starting from 10 dB below threshold level to 90 dB SPL. Responses were averaged at each sound level (1024 repeats with stimulus polarity alternated), and response waveforms were discarded when peak-to-peak amplitude exceeded 15 μV (artefact reject). The ABR threshold was defined as the lowest intensity (to the nearest 5 dB) at which a response could be visually detected above the noise floor. The animals were euthanised after hearing assessment and the cochleae collected for immunohistochemical assessment of free radical damage.
Six hours after exposure to broad band noise (110 dBSPL for 24 hours), adenosine receptor agonists were delivered to the round window membrane (RWM) in the left cochlea, whilst the contralateral ear served as untreated control. […]

[3] = tested on: nitrotyrosine immunoreactivity in the noise-exposed cochlea; assay: Nitrotyrosine immunohistochemistry, semi-quantitative, noise-exposed cochleae treated topically (Experiment 3); type: in vivo, Wistar rats; details: middle turn, adenosine 10 mM or CCPA 1 mM onto RWM, p<0.01
Source text: No immunostaining was detected when the nitrotyrosine antibody was omitted. (B). Semi-quantitative analysis of nitrotyrosine immunoreactivity. Abbreviations: cc, Claudius cells; dc, Deiters' cells; hc, Hensen's cells; idc, interdental cells; is, inner sulcus cells; ihc, inner hair cells; ohc, outer hair cells; opc, outer pillar cells. Scale bars: 50 μm. Data are expressed as means±SEM (n=4 animals per group). **p<0.01; ***p<0.001; one way ANOVA with Tukey's multiple comparison test.
Nitrotyrosine formation in the noise-exposed cochlea was assessed by immunohistochemistry. […] Immunoperoxidase reaction was detected using a secondary biotin-conjugated goat anti-rabbit IgG, followed by reaction visualisation using an avidin-biotin-peroxidase complex (ABC kit, Vector Laboratories) and diaminobenzidine (DAB kit, Vector). […] Images were analyzed using identical acquisition parameters and immunolabeling was semi-quantified using ImageJ software (v.1.38x, NIH, USA). […] Regions of interest were selected and their immunostaining intensity histograms obtained and expressed as mean pixel intensity after greyscale conversion. Between 15 and 32 images of the middle cochlear turn were analyzed in each group (n=4 animals per group) in a double-blind manner.

[4] = tested on: neural afferent output of the cochlea; assay: Compound action potential (CAP) thresholds during cochlear perfusion, ambient noise levels; type: in vivo, Wistar rats; details: RWM perfusion; data not shown
Source text: as §1
Animals were anaesthetized (sodium pentobarbital; 60 mg/kg i.p.) and placed on a thermostatically regulated blanket connected to a remote homeothermal control unit (Harvard Apparatus, Holliston, Mass., USA) to maintain stable body temperature (37.5° C.) via a rectal thermocouple probe (Harvard Apparatus). The head of the animal was placed on a heated (38° C. surface temperature) stereotaxic head-holder, connected to a heat block temperature controller (Bio-Medical Engineering Services, University of Auckland, New Zealand). […] Sound-evoked cochlear responses (CAP and SP) to pure tone stimuli (4-28 kHz) were recorded from a silver wire electrode placed onto the cochlear round window. These responses were measured using a Tucker-Davis System II for the presentation of tone stimuli and acquisition of the electrical potentials via a Grass P16 Pre-amplifier.

noise-exposed cochlea = details: pre-treatment (prophylactic), reference [6], cited from earlier work

Nc1ncnc2c1ncn2[C@@H]1O[C@H](CO)[C@@H](O)[C@H]1O [adenosine]
effect on SP thresholds [1]: did not affect SP thresholds
post-treatment ABR thresholds for clicks and pure tones [2]: markedly improved ABR thresholds
ABR threshold recovery for pure tones (up to) [2]: up to 19 dB
ABR threshold recovery for clicks [2]: 18 dB
reduction of nitrotyrosine mean pixel intensity compared to AP control [3]: 30-42%
effect on CAP thresholds [4]: not altered

C[C@H](Cc1ccccc1)Nc1ncnc2c1ncn2[C@@H]1O[C@H](CO)[C@@H](O)[C@H]1O [R-PIA, R—N6-phenylisopropyladenosine]
survival of the outer hair cells (noise-exposed cochlea): increased survival of the outer hair cells
preservation of auditory thresholds (noise-exposed cochlea; topical to RWM): better preservation of auditory thresholds

OC[C@H]1O[C@@H](n2cnc3c(NC4CCCC4)nc(Cl)nc32)[C@H](O)[C@@H]1O [CCPA, 2-Chloro-N^6-cyclopentyladenosine]
effect on SP thresholds [1]: did not affect SP thresholds
post-treatment ABR thresholds for clicks and pure tones [2]: markedly improved ABR thresholds
ABR threshold recovery for pure tones (up to) [2]: up to 20 dB
ABR threshold recovery for clicks [2]: 20 dB
reduction of nitrotyrosine mean pixel intensity compared to AP control [3]: 22-45%

CCNC(=O)[C@H]1O[C@@H](n2cnc3c(N)nc(NCCc4ccc(CCC(=O)O)cc4)nc32)[C@H](O)[C@@H]1O [CGS-21680, 2-p-(2-Carboxyethyl)phenethylamino-5′-N-ethylcarboxamidoadenosine hydrochloride hydrate]
reduction of SP thresholds ([1]; at 16 kHz, CGS-21680 200 μM RWM perfusion, p<0.01): 5 dB
post-treatment ABR thresholds for clicks and pure tones [2]: remained unchanged
threshold recovery ([2]; CGS-21680 200 μM onto RWM 6 hours after noise, FIG. 11(f)): did not affect threshold recovery

Nc1nc2c(cnn2CCc2ccccc2)c2nc(-c3ccco3)nn12 [SCH-58261, 7-(2-phenylethyl)-5-amino-2-(2-furyl)-pyrazolo-[4,3-e]-1,2,4-triazolo[1,5-c]pyrimidine]
effect on the CGS-21680 reduction of SP thresholds ([1]; SCH-58261 200 μM in combination with CGS-21680): inhibited
